Results as given in ChEMBL document CHEMBL1125480, “Studies on antidiabetic agents. 11. Novel thiazolidinedione derivatives as potent hypoglycemic and hypolipidemic agents” (1992).

What was measured:
Assay type in all cases: functional
Mus musculus [1] = species: Mus musculus; assay: Maximum reduction in plasma triglyceride levels in KKA mice at a dosage of 0.005% in diet
Mus musculus [2] = species: Mus musculus; assay: Maximum reduction in blood glucose levels in KKA mice at a dosage of 0.005% in diet
Mus musculus [3] = species: Mus musculus; assay: Effective dose to reduce 25% of glucose levels in blood
Mus musculus [4] = species: Mus musculus; assay: Maximum reduction in blood glucose levels in KKA mice at a dosage of 0.001% in diet
Mus musculus [5] = species: Mus musculus; assay: Maximum reduction in plasma triglyceride levels in KKA mice at a dosage of 0.001% in diet
Mus musculus [6] = species: Mus musculus; assay: Effective dose to reduce 25% of triglyceride levels in plasma
Mus musculus [7] = species: Mus musculus; assay: Compound was tested for maximum reduction in plasma triglyceride levels in KKA mice at a dosage of 0.005% in diet

SMILES	Reduction (Mus musculus [1]) [%]	Reduction (Mus musculus [2]) [%]	ED25 (Mus musculus [3]; Mus musculus, Blood) [mg/kg/day]	Reduction (Mus musculus [4]) [%]	Reduction (Mus musculus [5]) [%]	ED25 (Mus musculus [6]) [mg/kg/day]	ED25 (Mus musculus [3]) [mg/kg/day]	Reduction (Mus musculus [7]) [%]
Cc1nc(CCOc2ccc(/C=C3\SC(=O)NC3=O)cc2)cs1	5	34	–	–	–	–	–	–
O=C1NC(=O)C(Cc2ccc(OCCc3nc(-c4ccccc4)oc3CO)cc2)S1 (centres undefined)	39	31	–	–	–	–	–	–
CCc1oc(CCOc2ccc(CC3SC(=O)NC3=O)cc2)nc1-c1ccccc1 (centres undefined)	51	46	–	–	–	–	–	–
Cc1oc(-c2ccccc2)nc1C(O)COc1ccc(/C=C2\SC(=O)NC2=O)cc1 (centres undefined)	60	56	0.9	36	54	0.3	–	–
Cc1oc(C2(C)CCCCC2)nc1CCOc1ccc(/C=C2\SC(=O)NC2=O)cc1	9	24	–	–	–	–	–	–
Cc1oc(C2CCCCC2)nc1C(O)COc1ccc(CC2SC(=O)NC2=O)cc1 (centres undefined)	67	49	–	–	–	–	–	–
Cc1oc(CCOc2ccc(CC3SC(=O)NC3=O)cc2)nc1CC(C)C (centres undefined)	43	53	–	–	–	–	–	–
O=C1NC(=O)C(Cc2ccc(OCc3nc4ccccc4o3)cc2)S1 (centres undefined)	24	35	–	–	–	–	–	–
Cc1nc(CCOc2ccc(CC3SC(=O)NC3=O)cc2)oc1-c1ccccc1 (centres undefined)	7	18	–	–	–	–	–	–
Cc1nc(C(=O)COc2ccc(CC3SC(=O)NC3=O)cc2)c(C)o1 (centres undefined)	27	39	–	–	–	–	–	–
CCCc1nc(COc2ccc(CC3SC(=O)NC3=O)cc2)co1 (centres undefined)	29	12	–	–	–	–	–	–
Cc1nc(CCOc2ccc(CC3SC(=O)NC3=O)cc2)co1 (centres undefined)	42	37	–	13	20	3	5	–
Cc1scnc1CCOc1ccc(CC2SC(=O)NC2=O)cc1 (centres undefined)	45	52	–	–	–	–	–	–
Cc1oc(-c2ccccc2)nc1C(O)COc1ccc(CC2SC(=O)NC2=O)cc1 (centres undefined)	81	58	0.05	54	62	0.1	–	–
Cc1oc(-c2ccccc2)nc1CCOc1ccc(/C=C2\SC(=O)NC2=O)cc1	–	–	0.4	55	65	0.2	–	–
Cc1oc(-c2ccco2)nc1COc1ccc(CC2SC(=O)NC2=O)cc1 (centres undefined)	35	43	–	–	–	–	–	–
Cc1oc(-c2cccs2)nc1CCOc1ccc(CC2SC(=O)NC2=O)cc1 (centres undefined)	72	51	0.09	50	41	0.3	–	–
Cc1oc(-c2ccc(Cl)cc2)nc1CCOc1ccc(/C=C2\SC(=O)NC2=O)cc1	58	54	–	–	–	–	–	–
CCCc1nc(CCOc2ccc(CC3SC(=O)NC3=O)cc2)co1 (centres undefined)	65	52	2	29	26	2	–	–
CCc1oc(C)nc1CCOc1ccc(CC2SC(=O)NC2=O)cc1 (centres undefined)	45	46	3	15	0	5	–	–

SMILES	Reduction (Mus musculus [1]) [%]	Reduction (Mus musculus [2]) [%]	ED25 (Mus musculus [3]; Mus musculus, Blood) [mg/kg/day]	Reduction (Mus musculus [4]) [%]	Reduction (Mus musculus [5]) [%]	ED25 (Mus musculus [6]) [mg/kg/day]	ED25 (Mus musculus [3]) [mg/kg/day]	Reduction (Mus musculus [7]) [%]
O=C1NC(=O)C(Cc2ccc(OCc3csc(-c4cccnc4)n3)cc2)S1 (centres undefined)	30	25	–	–	–	–	–	–
O=C1NC(=O)C(Cc2ccc(OCc3coc(-c4ccccc4)n3)cc2)S1 (centres undefined)	51	48	3	16	12	4	–	–
Cc1nc(CCOc2ccc(CC3SC(=O)NC3=O)cc2)c(C)o1 (centres undefined)	56	55	2	27	10	3	–	–
Cc1nc(C(O)COc2ccc(CC3SC(=O)NC3=O)cc2)c(C)o1 (centres undefined)	62	51	0.2	55	52	0.5	–	–
CC(C)c1nc(CCOc2ccc(CC3SC(=O)NC3=O)cc2)cs1 (centres undefined)	45	56	–	–	–	–	–	–
Cc1oc(CCOc2ccc(CC3SC(=O)NC3=O)cc2)nc1-c1ccccc1 (centres undefined)	60	54	–	–	–	–	–	–
O=C1NC(=O)/C(=C/c2ccc(OCCc3csc(-c4ccccc4)n3)cc2)S1	57	57	0.6	49	44	1.3	–	–
Cc1oc(CCOc2ccc(CC3SC(=O)NC3=O)cc2)nc1C1CCCCC1 (centres undefined)	51	54	–	–	–	–	–	–
Cc1oc(-c2ccccc2)nc1C(=O)COc1ccc(/C=C2\SC(=O)NC2=O)cc1	51	45	–	–	–	–	–	–
COc1ccc(-c2nc(CCOc3ccc(CC4SC(=O)NC4=O)cc3)c(C)o2)cc1OC (centres undefined)	–	–	0.5	52	54	0.6	–	–
Cc1nc(COc2ccc(CC3SC(=O)NC3=O)cc2)cs1 (centres undefined)	30	19	–	–	–	–	–	–
Cc1nc(C(O)COc2ccc(/C=C3\SC(=O)NC3=O)cc2)c(C)o1 (centres undefined)	61	59	2.2	26	37	0.8	–	–
O=C1NC(=O)C(Cc2ccc(OCc3nc(-c4ccccc4)cs3)cc2)S1 (centres undefined)	44	48	–	–	–	–	–	–
Cc1cccc(-c2nc(CCOc3ccc(CC4SC(=O)NC4=O)cc3)c(C)o2)c1 (centres undefined)	–	–	0.05	49	61	0.06	–	–
CCc1oc(-c2ccccc2)nc1CCOc1ccc(/C=C2\SC(=O)NC2=O)cc1	59	54	–	–	–	–	–	–
CC1(COc2ccc(CC3SC(=O)NC3=O)cc2)CCCCC1 (centres undefined) [CIGLITAZONE]	–	–	31	–	–	25	–	–
Cc1oc(-c2ccccc2)nc1C(=O)COc1ccc(CC2SC(=O)NC2=O)cc1 (centres undefined)	67	52	–	–	–	–	–	–
CCc1nc(CCOc2ccc(CC3SC(=O)NC3=O)cc2)cs1 (centres undefined)	37	55	–	–	–	–	–	–
O=C1NC(=O)C(Cc2ccc(OCCc3coc(C4CCCCC4)n3)cc2)S1 (centres undefined)	–	–	1	31	14	9	–	–
CCc1ccc(CCOc2ccc(CC3SC(=O)NC3=O)cc2)nc1.Cl (centres undefined) [PIOGLITAZONE HYDROCHLORIDE]	–	–	6	–	–	6	–	–

SMILES	Reduction (Mus musculus [1]) [%]	Reduction (Mus musculus [2]) [%]	ED25 (Mus musculus [3]; Mus musculus, Blood) [mg/kg/day]	Reduction (Mus musculus [4]) [%]	Reduction (Mus musculus [5]) [%]	ED25 (Mus musculus [6]) [mg/kg/day]	ED25 (Mus musculus [3]) [mg/kg/day]	Reduction (Mus musculus [7]) [%]
Cc1nc(CCOc2ccc(CC3SC(=O)NC3=O)cc2)cs1 (centres undefined)	52	42	4	17	15	4	–	–
Cc1oc(-c2ccccc2)nc1CCOc1ccc(CC2SC(=O)NC2=O)cc1 (centres undefined)	66	59	0.05	55	67	0.09	–	–
Cc1oc(-c2ccccc2)nc1COc1ccc(CC2SC(=O)NC2=O)cc1 (centres undefined)	44	21	3	23	17	5	–	–
Cc1oc(-c2ccc(O)cc2)nc1CCOc1ccc(CC2SC(=O)NC2=O)cc1 (centres undefined)	–	–	–	22	26	–	–	–
Cc1nc(COc2ccc(CC3SC(=O)NC3=O)cc2)co1 (centres undefined)	1	–	–	19	–	–	–	–
CSc1cccc(-c2nc(CCOc3ccc(CC4SC(=O)NC4=O)cc3)c(C)o2)c1 (centres undefined)	67	52	–	–	–	–	–	–
O=C1NC(=O)C(Cc2ccc(OCCc3csc(-c4ccccc4)n3)cc2)S1 (centres undefined)	63	52	0.5	39	54	0.3	–	–
CCc1oc(-c2ccccc2)nc1CCOc1ccc(CC2SC(=O)NC2=O)cc1 (centres undefined)	79	55	0.3	49	55	0.6	–	–
CSc1cccc(-c2nc(CCOc3ccc(/C=C4\SC(=O)NC4=O)cc3)c(C)o2)c1	58	52	–	–	–	–	–	–
Cc1oc(C2CCCCC2)nc1CCOc1ccc(CC2SC(=O)NC2=O)cc1 (centres undefined)	71	52	0.2	51	58	0.6	–	–
Cc1oc(-c2ccccc2)nc1CCCOc1ccc(CC2SC(=O)NC2=O)cc1 (centres undefined)	29	21	–	–	–	–	–	–
COc1ccc(-c2nc(CCOc3ccc(CC4SC(=O)NC4=O)cc3)c(C)o2)cc1 (centres undefined)	72	55	0.3	53	63	0.6	–	–
O=C1NC(=O)C(Cc2ccc(OCc3nc4ccccc4s3)cc2)S1 (centres undefined)	43	43	–	–	–	–	–	–
Cc1oc(-c2ccccc2)nc1COc1ccc(/C=C2\SC(=O)NC2=O)cc1	40	37	–	–	–	–	–	–
Cc1oc(-c2cccs2)nc1CCOc1ccc(/C=C2\SC(=O)NC2=O)cc1	57	55	–	–	–	–	–	–
Cc1nc(C(=O)COc2ccc(/C=C3\SC(=O)NC3=O)cc2)c(C)o1	29	33	–	–	–	–	–	–
O=C1NC(=O)C(Cc2ccc(OCCc3csc(C4CCCCC4)n3)cc2)S1 (centres undefined)	–	–	0.8	43	33	3	–	–
Cc1oc(-c2ccccc2Cl)nc1CCOc1ccc(CC2SC(=O)NC2=O)cc1 (centres undefined)	–	–	–	52	57	–	–	–
O=C1NC(=O)C(Cc2ccc(OCc3csc(-c4ccccc4)n3)cc2)S1 (centres undefined)	–	28	6	11	3	8	–	32
